The NIST ThermoML archive (doi:10.1016/j.fluid.2018.10.006)

Conditions: Fluid (supercritical or subcritical phases), Coaxial cylinder method

CCCCCC [hexane]
Conditions	thermal conductivity [W/m/K]
511.55 K, 5000 kPa	0.07163
511.55 K, 5100 kPa	0.07163
511.55 K, 5300 kPa	0.07217
511.55 K, 5500 kPa	0.0724
511.55 K, 5800 kPa	0.07283
511.55 K, 6000 kPa	0.07313
511.55 K, 6200 kPa	0.07344
511.55 K, 6400 kPa	0.07374
511.55 K, 6600 kPa	0.07406
511.55 K, 6800 kPa	0.07437
511.55 K, 6900 kPa	0.07456
511.55 K, 7100 kPa	0.07481
511.55 K, 7200 kPa	0.07501
511.55 K, 7300 kPa	0.07513
511.55 K, 7500 kPa	0.07618
511.55 K, 7800 kPa	0.07658
511.55 K, 8000 kPa	0.07685
511.55 K, 8200 kPa	0.07712
511.55 K, 8300 kPa	0.07719
511.55 K, 8400 kPa	0.07733
511.55 K, 8500 kPa	0.07746
511.55 K, 8600 kPa	0.0776
511.55 K, 8700 kPa	0.07767
511.55 K, 9000 kPa	0.07803
511.55 K, 9100 kPa	0.07815
511.55 K, 9200 kPa	0.07822
511.55 K, 9300 kPa	0.07828
511.55 K, 9400 kPa	0.07837
511.55 K, 9700 kPa	0.0787
511.55 K, 10000 kPa	0.07902
511.79 K, 1600 kPa	0.03961
511.79 K, 1800 kPa	0.04006
511.79 K, 1900 kPa	0.04052
511.79 K, 2000 kPa	0.041
511.79 K, 2090 kPa	0.04133
511.79 K, 2100 kPa	0.04148
511.79 K, 2110 kPa	0.04151
511.79 K, 2200 kPa	0.04198
511.79 K, 2300 kPa	0.0427
511.79 K, 2400 kPa	0.04354
511.79 K, 2500 kPa	0.04428
511.79 K, 2600 kPa	0.04543
511.79 K, 2700 kPa	0.04664
511.79 K, 2800 kPa	0.04819
511.79 K, 2817 kPa	0.04857
511.79 K, 2911 kPa	0.05076
511.79 K, 2958 kPa	0.052
511.79 K, 2987 kPa	0.05281
511.79 K, 3000 kPa	0.05337
511.79 K, 3049 kPa	0.05564
511.79 K, 3076 kPa	0.05734
511.79 K, 3093 kPa	0.05872
511.79 K, 3101 kPa	0.05933
511.79 K, 3113 kPa	0.06039
511.79 K, 3121 kPa	0.06126
511.79 K, 3133 kPa	0.06272
511.79 K, 3143 kPa	0.06414
511.79 K, 3151 kPa	0.06537
511.79 K, 3156 kPa	0.06613
511.79 K, 3163 kPa	0.06743
511.79 K, 3167 kPa	0.06811
511.79 K, 3169 kPa	0.06851
511.79 K, 3172 kPa	0.06906
511.79 K, 3175 kPa	0.06962
511.79 K, 3177 kPa	0.07014
511.79 K, 3179 kPa	0.07048
511.79 K, 3181 kPa	0.07092
511.79 K, 3183 kPa	0.07134
511.79 K, 3185 kPa	0.07166
511.79 K, 3186 kPa	0.07193
511.79 K, 3188 kPa	0.07227
511.79 K, 3189 kPa	0.07257
511.79 K, 3190 kPa	0.07273
511.79 K, 3191 kPa	0.07304
511.79 K, 3192 kPa	0.07319
511.79 K, 3193 kPa	0.07344
511.79 K, 3194 kPa	0.07367
511.79 K, 3195 kPa	0.07382
511.79 K, 3196 kPa	0.07398
511.79 K, 3197 kPa	0.07424
511.79 K, 3198 kPa	0.07446
511.79 K, 3199 kPa	0.07463
511.79 K, 3200 kPa	0.07479
511.79 K, 3202 kPa	0.07528
511.79 K, 3204 kPa	0.07561
511.79 K, 3205 kPa	0.07578
511.79 K, 3206 kPa	0.07595
511.79 K, 3209 kPa	0.07635
511.79 K, 3212 kPa	0.07676
511.79 K, 3214 kPa	0.077
511.79 K, 3216 kPa	0.07724
511.79 K, 3219 kPa	0.07745
511.79 K, 3221 kPa	0.07749
511.79 K, 3223 kPa	0.07756
511.79 K, 3226 kPa	0.07759
511.79 K, 3231 kPa	0.07766
511.79 K, 3234 kPa	0.07766
511.79 K, 3236 kPa	0.07745
511.79 K, 3237 kPa	0.07745
511.79 K, 3240 kPa	0.07732
511.79 K, 3243 kPa	0.07697
511.79 K, 3246 kPa	0.07663
511.79 K, 3247 kPa	0.07629
511.79 K, 3251 kPa	0.07496
511.79 K, 3253 kPa	0.07496
511.79 K, 3256 kPa	0.07463
511.79 K, 3257 kPa	0.07431
511.79 K, 3264 kPa	0.07399
511.79 K, 3265 kPa	0.07367
511.79 K, 3269 kPa	0.07336
511.79 K, 3270 kPa	0.07336
511.79 K, 3276 kPa	0.07336
511.79 K, 3278 kPa	0.07336
511.79 K, 3280 kPa	0.07336
511.79 K, 3285 kPa	0.07336
511.79 K, 3291 kPa	0.07243
511.79 K, 3293 kPa	0.07243
511.79 K, 3295 kPa	0.07243
511.79 K, 3300 kPa	0.07213
511.79 K, 3301 kPa	0.07183
511.79 K, 3306 kPa	0.07183
511.79 K, 3310 kPa	0.07153
511.79 K, 3313 kPa	0.07123
511.79 K, 3315 kPa	0.07123
511.79 K, 3319 kPa	0.07122
511.79 K, 3321 kPa	0.07122
511.79 K, 3325 kPa	0.07122
511.79 K, 3327 kPa	0.07122
511.79 K, 3330 kPa	0.07122
511.79 K, 3332 kPa	0.07122
511.79 K, 3335 kPa	0.07122
511.79 K, 3340 kPa	0.07122
511.79 K, 3346 kPa	0.07122
511.79 K, 3350 kPa	0.07123
511.79 K, 3353 kPa	0.07123
511.79 K, 3355 kPa	0.07123
511.79 K, 3360 kPa	0.07123
511.79 K, 3365 kPa	0.07064
511.79 K, 3367 kPa	0.07064
511.79 K, 3368 kPa	0.07064
511.79 K, 3370 kPa	0.07064
511.79 K, 3375 kPa	0.07064
511.79 K, 3380 kPa	0.07064
511.79 K, 3385 kPa	0.07064
511.79 K, 3390 kPa	0.07064
511.79 K, 3395 kPa	0.07064
511.79 K, 3400 kPa	0.07064
511.79 K, 3410 kPa	0.07064
511.79 K, 3420 kPa	0.07065
511.79 K, 3440 kPa	0.07065
511.79 K, 3460 kPa	0.07065
511.79 K, 3500 kPa	0.07041
511.79 K, 3600 kPa	0.06993
511.79 K, 3657 kPa	0.06978
511.79 K, 3700 kPa	0.06973
511.79 K, 3750 kPa	0.06973
511.79 K, 3800 kPa	0.06973
511.79 K, 3850 kPa	0.06973
511.79 K, 3900 kPa	0.06973
511.79 K, 3950 kPa	0.06975
511.79 K, 3980 kPa	0.06975
511.79 K, 4000 kPa	0.06988
511.79 K, 4030 kPa	0.06995
511.79 K, 4100 kPa	0.07011
